Measured values: US5219884A, “Immunosuppressant” (Taito Co., Ltd., priority 1990, dated 1993)
≈ marks a conversion by molar mass, not a printed value. Like-named read-outs stand apart in the source and are kept apart here.

Experiments:
[1] = system: mouse L929 cells; test: cytotoxicity to mouse L929 cells; assay type: cell-based; conditions: 550 nm
Procedure: (§1) Cytotoxicity to mouse L929 cells was assayed as follows:
(§2) L929 cells were suspended to the concentration of 1.5×10^5 cells/ml in the F12 culture medium supplemented with 10% FCS. One hundred μl of the suspension was added to each well of 96-well microculture plates, and cultured at 37° C. in an atmosphere of 5% carbon dioxide for 24 hours, to which 100 μl of the test solution was added and cultured for further 48 hours. After the culture, 100 μl of the supernatant was removed and the absorbancy at 550 nm was measured in the same way as the colormetry using MTT in Experimental Example 1. The percent suppression was calculated by the following formula used as the index of cytotoxicity. [formula]

[2] = system: MOLT4; test: cytotoxicity to tumor cell line MOLT4; assay type: cell-based, human
Procedure: (§3) Cytotoxicity to human tumor cell lines was examined as follows:
(§4) Cells of human cell lines, K562, MOLT4, U937, HL60, KATOIII, KB, PC-6, PC-14 and CCRF-CEM were separately suspended to the concentration of 2×10^5 cells/ml in the RPMI1640 culture medium supplemented with 20% FCS. Fifty μl of this suspension was added to each well of 96-well microculture plates to which 50 μl of the test solution had been added. After culturing at 37° C. in an atmosphere of 5% carbon dioxide for 72 hours, the absorbancy at 550 nm was measured in the same way as the colorimetry using MTT in Experimental Example 1, and the percent suppression was calculated in the same manner as in Experimental Example 14, which was used as the index of cytotoxicity.

[3] = cytotoxicity to tumor cell line MOLT4; assay type: cell-based, human; conditions: human, molt4 cells, read-out: Suppression
Procedure: as §3, §4

[4] = system: mouse allogenic mixed lymphocyte reaction (BALB/c responder, C57BL/6 stimulator spleen cells); test: mouse allogenic mixed lymphocyte reaction (MLR), blastogenesis by 3H-thymidine uptake; assay type: cell-based
Procedure: The immunosuppressive activity of the compounds (I) and their lactones was assayed by using mouse allogenic mixed lymphocyte reaction (hereinafter sometimes abbreviated as MLR). Mouse allogenic MLR was carried out by mixed culture of the BALB/c mouse (H-2^d) spleen cells as the responder cells and the mitomycin C-treated C57BL/6 (H-2^b) spleen cells as the stimulator cells in equal amounts.
The responder cells were prepared as follows: The spleen was resected from 5- to 6-week-old male BALB/c mice, and single cell suspension of spleen cells was prepared by using the RPMI1640 culture medium (containing 60 μg/ml of kanamycin sulfate, 2 mM of L-glutamine, 10 mM of N-2-hydroxyethylpiperazine-N'-2-ethanesulfonate (HEPES) and 0.1% sodium hydrogencarbonate) to which heat-inactivated fetal calf serum (hereinaftersometimes abbreviated as FCS) had been added to 5%. After hemolytic treatment, the cell suspension was adjusted to a concentration of 10^7 cells/ml by using the RPMI1640 culture medium supplemented with 10^-4 M 2-mercaptoethanol and 20% FCS, and was used as the responder cell suspension.
The stimulator cells were prepared as follows:
The spleen was resected from 5- to 6-week-old male C57BL/6 mice, and single cell suspension of spleen cells was prepared by using the RPMI1640 culture medium. After hemolytic treatment, the cells were treated with 40 μg/ml of mitomycin C at 37° C. for 60 minutes. After washing three times, the concentration of the cell suspension was adjusted to 10^7 cells/ ml by using the RPMI1640 culture medium supplemented with 10^-4 M 2-mercaptoethanol and 20% FCS, and was used as the stimulator cell suspension.
Fifty μl of the responder cell suspension, 50μl of the stimulator cell suspension prepared by the above method, and 100 μl of the test substance were placed in 96-well microculture plates, and were cultured at 37° C. in an atmosphere of 5% carbon dioxide for 4 days.
The blastogenesis of lymphocytes was assayed by a method of ^3 H-thymidine uptake as an index. That is, after termination of the culture, 0.5 μCi/well of ^3 H-thymidine was added and cultured for 4 hours. Cells were harvested by a cell-harvester, and the radioactivity incorporated into the cells was determined by a liquid scintillation counter to obtain the index of blastogenesis of lymphocytes in the mouse allogenic MLR. The suppression of the mouse allogenic MLR was evaluated by calculating the percent suppression by the following formula. [formula]
The test substance was dissolved in methanol or suspended in a mixture of methanol and acetic acid, and then diluted with the RPMI1640 culture medium.

[5] = system: CCRF-CEM; test: in vitro; assay type: cell-based, human
Procedure: as §3, §4

[6] = system: PC-14; test: in vitro; assay type: cell-based, human
Procedure: as §3, §4

[7] = system: HL60; test: in vitro; assay type: cell-based, human
Procedure: as §3, §4

[8] = system: K562; test: in vitro; assay type: cell-based, human
Procedure: as §3, §4

[9] = system: KB; test: in vitro; assay type: cell-based, human
Procedure: as §3, §4

[10] = in vitro; assay type: cell-based, human; conditions: human, read-out: Suppression
Procedure: as §3, §4

[11] = system: U937; test: in vitro; assay type: cell-based, human
Procedure: as §3, §4

[12] = cytotoxicity to mouse L929 cells; assay type: cell-based; conditions: mouse, l929 cells, read-out: Suppression
Procedure: as §1, §2

[13] = Mus musculus, Lymphocyte, read-out: Suppression

CCCCCCC(=O)CCCCCC/C=C/CC(O)C(O)C(N)(CO)C(=O)O (centres unmarked) [Example 1]
Absorbancy ([1]; 1 μg/ml): 0.699 | Absorbancy ([1]; 10 μg/ml): 0.693 | Absorbancy ([1]; 100 μg/ml): 0.321 | Absorbancy ([2]; 0.1 μg/ml): 0.560 | Absorbancy ([2]; 1.0 μg/ml): 0.559 | Absorbancy ([2]; 10.0 μg/ml): 0.499 | Absorbancy ([2]; 100.0 μg/ml): 0.074 | cytotoxicity at 72 h ([3]; 0.1 μg/ml): 9.4% | 3H-thymidine uptake ([4]; 0.001 μg/ml): 14760 cpm | 3H-thymidine uptake ([4]; 0.01 μg/ml): 6436 cpm | 3H-thymidine uptake ([4]; 0.1 μg/ml): 686 cpm | 3H-thymidine uptake ([4]; 1 μg/ml): 698 cpm | IC50 ([4]; Mus musculus, Lymphocyte, read-out: 50%-inhibition concentration (IC50)): 7.1 ng/mL (≈ 0.0177 µM) | inhibition at 0.001 µg/mL [4, 13]: 0% | inhibition at 0.01 µg/mL [4, 13]: 59.2% | inhibition at 0.1 µg/mL [4, 13]: 100% | inhibition at 1 µg/mL [4, 13]: 100% | Absorbancy ([5]; 0.01 μg/ml): 0.678 | Absorbancy ([5]; 0.1 μg/ml): 0.709 | Absorbancy ([5]; 1.0 μg/ml): 0.660 | Absorbancy ([5]; 10.0 μg/ml): 0.637 | Absorbancy ([5]; 100.0 μg/ml): 0.013 | Absorbancy ([6]; 0.01 μg/ml): 0.801 | Absorbancy ([6]; 0.1 μg/ml): 0.770 | Absorbancy ([6]; 1.0 μg/ml): 0.732 | Absorbancy ([6]; 10.0 μg/ml): 0.751 | Absorbancy ([6]; 100.0 μg/ml): 0.074 | Absorbancy ([7]; 0.1 μg/ml): 0.402 | Absorbancy ([7]; 1.0 μg/ml): 0.390 | Absorbancy ([7]; 10.0 μg/ml): 0.377 | Absorbancy ([7]; 100.0 μg/ml): 0.101 | Absorbancy ([8]; 0.1 μg/ml): 0.886 | Absorbancy ([8]; 1.0 μg/ml): 0.905 | Absorbancy ([8]; 10.0 μg/ml): 0.929 | Absorbancy ([8]; 100.0 μg/ml): 0.583 | Absorbancy ([9]; 0.01 μg/ml): 0.898 | Absorbancy ([9]; 0.1 μg/ml): 0.865 | Absorbancy ([9]; 1.0 μg/ml): 0.879 | Absorbancy ([9]; 10.0 μg/ml): 0.886 | Absorbancy ([9]; 100.0 μg/ml): 0.025 | cytotoxicity at 72 h ([10]; hl60 cells, 1.0 μg/ml): 38.2% | cytotoxicity at 72 h ([10]; pc-14 cells, 1.0 μg/ml): 7% | Absorbancy ([11]; 0.1 μg/ml): 0.619 | Absorbancy ([11]; 1.0 μg/ml): 0.567 | Absorbancy ([11]; 10.0 μg/ml): 0.497 | Absorbancy ([11]; 100.0 μg/ml): 0.156

CCCCCCC(=O)CCCCCCCCCC(O)C(O)C(N)(CO)C(=O)O (centres unmarked) [Example 5]
Absorbancy ([1]; 0.1 μg/ml): 0.775 | Absorbancy ([1]; 1 μg/ml): 0.805 | Absorbancy ([1]; 10 μg/ml): 0.749 | cytotoxicity at 48 h ([12]; 0.1 μg/ml): 0% | cytotoxicity at 48 h ([12]; 1 μg/ml): 0% | cytotoxicity at 48 h ([12]; 10 μg/ml): 0% | Absorbancy ([2]; 0.1 μg/ml): 0.591 | Absorbancy ([2]; 1.0 μg/ml): 0.588 | Absorbancy ([2]; 10.0 μg/ml): 0.508 | cytotoxicity at 72 h ([3]; 0.1 μg/ml): 4.7% | cytotoxicity at 72 h ([3]; 1.0 μg/ml): 5.2% | cytotoxicity at 72 h ([3]; 10.0 μg/ml): 18.1% | 3H-thymidine uptake ([4]; 0.001 μg/ml): 22321 cpm | 3H-thymidine uptake ([4]; 0.01 μg/ml): 8182 cpm | 3H-thymidine uptake ([4]; 0.1 μg/ml): 1952 cpm | inhibition at 0.001 µg/mL ([4]; Mus musculus, Lymphocyte, 0.001 μg/ml, read-out: Suppression): 23.5% | inhibition at 0.01 µg/mL ([4]; Mus musculus, Lymphocyte, 0.01 μg/ml, read-out: Suppression): 90.6% | inhibition at 0.1 µg/mL ([4]; Mus musculus, Lymphocyte, 0.1 μg/ml, read-out: Suppression): 100% | Absorbancy ([5]; 0.1 μg/ml): 0.485 | Absorbancy ([5]; 1.0 μg/ml): 0.466 | Absorbancy ([5]; 10.0 μg/ml): 0.394 | Absorbancy ([6]; 0.1 μg/ml): 0.420 | Absorbancy ([6]; 1.0 μg/ml): 0.396 | Absorbancy ([6]; 10.0 μg/ml): 0.352 | Absorbancy ([7]; 0.1 μg/ml): 0.593 | Absorbancy ([7]; 1.0 μg/ml): 0.657 | Absorbancy ([7]; 10.0 μg/ml): 0.590 | Absorbancy ([8]; 0.1 μg/ml): 0.823 | Absorbancy ([8]; 1.0 μg/ml): 0.810 | Absorbancy ([8]; 10.0 μg/ml): 0.780 | Absorbancy ([9]; 0.1 μg/ml): 0.761 | Absorbancy ([9]; 1.0 μg/ml): 0.734 | Absorbancy ([9]; 10.0 μg/ml): 0.711 | cytotoxicity at 72 h ([10]; ccrf-cem cells, 0.1 μg/ml): 3.6% | cytotoxicity at 72 h ([10]; ccrf-cem cells, 1.0 μg/ml): 7.4% | cytotoxicity at 72 h ([10]; ccrf-cem cells, 10.0 μg/ml): 21.7% | cytotoxicity at 72 h ([10]; hl60 cells, 0.1 μg/ml): 20.5% | cytotoxicity at 72 h ([10]; hl60 cells, 1.0 μg/ml): 11.9% | cytotoxicity at 72 h ([10]; hl60 cells, 10.0 μg/ml): 20.9% | cytotoxicity at 72 h ([10]; k562 cells, 0.1 μg/ml): 1.6% | cytotoxicity at 72 h ([10]; k562 cells, 1.0 μg/ml): 3.1% | cytotoxicity at 72 h ([10]; k562 cells, 10.0 μg/ml): 6.7% | cytotoxicity at 72 h ([10]; kb cells, 0.1 μg/ml): 0% | cytotoxicity at 72 h ([10]; kb cells, 1.0 μg/ml): 0% | cytotoxicity at 72 h ([10]; kb cells, 10.0 μg/ml): 2.6% | cytotoxicity at 72 h ([10]; pc-14 cells, 0.1 μg/ml): 11.4% | cytotoxicity at 72 h ([10]; pc-14 cells, 1.0 μg/ml): 16.5% | cytotoxicity at 72 h ([10]; pc-14 cells, 10.0 μg/ml): 25.7% | cytotoxicity at 72 h ([10]; u937 cells, 0.1 μg/ml): 4.5% | cytotoxicity at 72 h ([10]; u937 cells, 1.0 μg/ml): 0% | Absorbancy ([11]; 0.1 μg/ml): 0.462 | Absorbancy ([11]; 1.0 μg/ml): 0.485
